Assay: Log P by HPLC on reversed phase columns (EEC directive 79/831 Annex V.A8)
Type: physicochemical
How it was run: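 Values come from retention times calibrated against alkan-2-ones (3–16 carbons) by linear interpolation, using reversed-phase LC-UV per EEC directive 79/831 Annex V.A8. Acetonitrile gradient 10–95% with 0.1% formic acid [a], 0.001 M ammonium acetate [b] or 0.1% phosphoric acid [c]; several values within one method separated by "+".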

Row | Structure (SMILES) | LogP (method marked [a]) | LogP (method [a])
1 | CCOC(=O)C(CSC)NC(=O)c1sc(Br)c(Cl)c1C (stereo not shown) [1.0756] | 3.94^[a] | –
2 | CC(C)(C)OC(=O)C1(NC(=O)c2sc(Br)c(Br)c2Cl)CC(F)(F)C1 [1.0757] | 4.89^[a] | –
3 | CCOC(=O)C(C#N)NC(=O)c1sc(Cl)c(Cl)c1C (stereo not shown) [1.0758] | 3.23^[a] | –
4 | COC(=O)C(CCSC)NC(=O)c1sc(Br)c(Cl)c1C (stereo not shown) [1.0759] | 3.64^[a] | –
5 | CCOC(=O)C(C)(C)NC(=O)c1sc(Cl)c(Br)c1C [1.0760] | 3.66^[a] | –
6 | CCOC(=O)C(C)(C)NC(=O)c1sc(Br)c(Cl)c1C [1.0764] | 3.71^[a] | –
7 | CCOC(=O)[C@H](CCSC)NC(=O)c1sc(Br)c(Cl)c1C [1.0765] | 4.01^[a] | –
8 | COC(=O)C(CCSC)NC(=O)c1sc(Br)c(Br)c1Cl (stereo not shown) [1.0766] | 4.04^[a] | –
9 | COC(=O)[C@H](CCSC)NC(=O)c1sc(Cl)c(Br)c1C [1.0767] | 3.74^[a] | –
10 | COC(=O)[C@H](CCSC)NC(=O)c1sc(Br)c(Cl)c1C [1.0768] | 3.60^[a] | –
11 | CCOC(=O)C(CSC)NC(=O)c1sc(C#N)c(Br)c1C (stereo not shown) [1.0769] | 3.26^[a] | –
12 | COC(=O)C(CCSC)NC(=O)c1sc(Cl)c(Cl)c1C#N (stereo not shown) [1.0770] | 3.14^[a] | –
13 | CCOC(=O)C(NC(=O)c1sc(C#N)c(Cl)c1C)C(=O)OCC [1.0771] | 3.20^[a] | –
14 | CCOC(=O)C(NC(=O)c1sc(Br)c(Br)c1F)C(=O)OCC [1.0772] | 3.91^[a] | –
15 | CCOC(=O)C(NC(=O)c1sc(C#N)c(Br)c1C)C(=O)OCC [1.0773] | 3.23^[a] | –
16 | CCOC(=O)C(NC(=O)c1sc(Cl)c(Cl)c1C#N)C(=O)OCC [1.0774] | 3.40^[a] | –
17 | CCOC(=O)C(NC(=O)c1sc(Cl)c(Cl)c1Br)C(=O)OCC [1.0775] | 4.30^[a] | –
18 | CCOC(=O)C(COC)NC(=O)c1sc(Br)c(Br)c1Cl (stereo not shown) [1.0776] | 3.91^[a] | –
19 | CCOC(=O)C(COC)NC(=O)c1sc(Cl)c(Cl)c1Br (stereo not shown) [1.0777] | 3.94^[a] | –
20 | COC(=O)C(CCSC)NC(=O)c1sc(Br)c(Br)c1C#N (stereo not shown) [1.0778] | 3.37^[a] | –
21 | CCOC(=O)C(CO)NC(=O)c1sc(Br)c(Br)c1Cl (stereo not shown) [1.0779] | 2.89^[a] | –
22 | CCOC(=O)C(CO)NC(=O)c1sc(Cl)c(Cl)c1Br (stereo not shown) [1.0780] | 3.06^[a] | –
23 | CCOC(=O)CNC(=O)c1sc(Br)c(Cl)c1Br [1.0781] | 3.40^[a] | –
24 | CCOC(=O)C1(NC(=O)c2sc(Br)c(Cl)c2Br)CC1 [1.0782] | 3.56^[a] | –
25 | CCOC(=O)C(NC(=O)c1sc(Br)c(Br)c1Cl)C(=O)OCC [1.0783] | 4.33^[a] | –

Row | Structure (SMILES) | LogP (method marked [a]) | LogP (method [a])
26 | C#CCOC(=O)C1(NC(=O)c2sc(C#N)c(Cl)c2Cl)CC1 [1.0784] | 2.73^[a] | –
27 | C#CCOC(=O)C1(NC(=O)c2sc(Cl)c(Cl)c2C#N)CC1 [1.0785] | 2.65^[a] | –
28 | NC(=O)C1(NC(=O)c2sc(Cl)c(Cl)c2Br)CC1 [1.0786] | 2.08^[a] | –
29 | NC(=O)C1(NC(=O)c2sc(Br)c(Br)c2Cl)CC1 [1.0787] | 2.10^[a] | –
30 | N#Cc1sc(C(=O)NC2(C(N)=O)CC2)c(Cl)c1Cl [1.0788] | 1.67^[a] | –
31 | Cc1c(C(=O)NC2(C(N)=O)CC2)sc(C#N)c1Br [1.0789] | 1.61^[a] | –
32 | CCOC(=O)CN(OC)C(=O)c1sc(Cl)c(Cl)c1Br [1.0790] | 3.71^[a] | –
33 | COC(=O)C(CCSC)NC(=O)c1sc(C#N)c(Cl)c1Cl (stereo not shown) [1.0791] | – | 3.26^[a]
34 | CCOC(=O)C(COC)NC(=O)c1sc(C#N)c(Br)c1C (stereo not shown) [1.0792] | – | 2.80^[a]
35 | CCOC(=O)CNC(=O)c1sc(C)c(Cl)c1F [1.0793] | – | 2.54^[a]
36 | CCOC(=O)C(CCSC)NC(=O)c1sc(Br)c(Br)c1C#N (stereo not shown) [1.0794] | – | 3.51^[a]
37 | CCOC(=O)C1(NC(=O)c2sc(Br)c(Br)c2F)CSC1 [1.0795] | – | 3.59^[a]
38 | N#Cc1sc(C(=O)NCC(N)=O)c(Cl)c1Cl [1.0796] | – | 1.48^[a]
39 | CCOC(=O)CNC(=O)c1sc(Br)c(Br)c1C#N [1.0797] | – | 2.59^[a]
40 | COC(=O)CNC(=O)c1sc(Br)c(Br)c1C#N [1.0798] | – | 2.24^[a]
41 | CCOC(=O)C1(NC(=O)c2sc(Br)c(Br)c2C#N)CC1 [1.0799] | – | 2.73^[a]
42 | COC(=O)C1(NC(=O)c2sc(Br)c(Br)c2C#N)CC1 [1.0800] | – | 2.40^[a]
43 | COC(=O)C(C)(C)NC(=O)c1sc(Br)c(Br)c1C#N [1.0801] | – | 2.81^[a]
44 | N#CCNC(=O)c1sc(Br)c(Br)c1C#N [1.0802] | – | 2.11^[a]
45 | CCOC(=O)C(CO)NC(=O)c1sc(Br)c(Br)c1C#N (stereo not shown) [1.0803] | – | 2.29^[a]
46 | CCOC(=O)CN(OC)C(=O)c1sc(Br)c(Br)c1Cl [1.0804] | – | 3.67^[a]
47 | CCOC(=O)C(NC(=O)c1sc(Br)c(Br)c1C#N)C(=O)OCC [1.0805] | – | 3.39^[a]
48 | COC(=O)C1(NC(=O)c2sc(Br)c(Br)c2C#N)CCC1 [1.0806] | – | 2.87^[a]
49 | N#Cc1c(C(=O)NC2(C(N)=O)CC2)sc(Cl)c1Cl [1.0807] | – | 1.71^[a]
50 | CCOC(=O)C(CO)NC(=O)c1sc(C#N)c(Cl)c1Cl (stereo not shown) [1.0809] | – | 2.33^[a]

Row | Structure (SMILES) | LogP (method marked [a]) | LogP (method [a])
51 | CCOC(=O)C(CO)NC(=O)c1sc(Cl)c(Cl)c1C#N (stereo not shown) [1.0810] | – | 2.23^[a]
52 | CCOC(=O)C(CCSC)NC(=O)c1sc(Br)c(Br)c1F (stereo not shown) [1.0812] | – | 4.05^[a]
53 | CCOC(=O)C(CCSC)NC(=O)c1sc(C#N)c(Cl)c1Cl (stereo not shown) [1.0813] | – | 3.60^[a]
54 | CCOC(=O)C(CCSC)NC(=O)c1sc(Cl)c(Cl)c1C#N (stereo not shown) [1.0814] | – | 3.46^[a]
55 | CCOC(=O)C1(NC(=O)c2sc(Br)c(Br)c2C#N)CCC1 [1.0815] | – | 3.23^[a]
56 | CCOC(=O)[C@H](CO)NC(=O)c1sc(Cl)c(Cl)c1Br [1.0816] | – | 2.84^[a]
57 | CCOC(=O)[C@H](CO)NC(=O)c1sc(Br)c(Br)c1Cl [1.0817] | – | 2.84^[a]
58 | CCOC(=O)C(C)NC(=O)c1sc(C#N)c(Br)c1C (stereo not shown) [1.0823] | – | 2.80^[a]
59 | CCOC(=O)C(C)NC(=O)c1sc(Br)c(Br)c1Cl (stereo not shown) [1.0824] | – | 4.01^[a]
60 | COC(=O)CNC(=O)c1sc(I)c(Cl)c1Cl [1.0826] | – | 2.82^[a]
61 | CCOC(=O)CNC(=O)c1sc(I)c(Cl)c1Cl [1.0827] | – | 3.24^[a]
62 | COC(=O)C1(NC(=O)c2sc(I)c(Cl)c2Cl)CC1 [1.0828] | – | 3.01^[a]
63 | CCOC(=O)[C@H](CO)NC(=O)c1sc(Cl)c(Cl)c1C#N [1.0830] | – | 2.22^[a]
64 | CCOC(=O)[C@H](CO)NC(=O)c1sc(C#N)c(Cl)c1Cl [1.0831] | – | 2.26^[a]
65 | CCOC(=O)[C@H](CO)NC(=O)c1sc(Br)c(Br)c1F [1.0832] | – | 2.54^[a]
66 | CCOC(=O)[C@H](CO)NC(=O)c1sc(C#N)c(Cl)c1C [1.0833] | – | 2.07^[a]
67 | CCOC(=O)C(CO)NC(=O)c1sc(C#N)c(Br)c1C (stereo not shown) [1.0834] | – | 2.16^[a]
68 | CCOC(=O)C(CO)NC(=O)c1sc(C#N)c(Cl)c1C (stereo not shown) [1.0835] | – | 2.12^[a]
69 | COC(=O)C(CCSC)NC(=O)c1sc(C#N)c(Cl)c1C (stereo not shown) [1.0836] | – | 3.03^[a]
70 | N#CCNC(=O)c1sc(Br)c(Cl)c1Br [1.0837] | – | 2.75^[a]
71 | CCOC(=O)C(CCSC)NC(=O)c1sc(Br)c(Cl)c1Br (stereo not shown) [1.0838] | – | 4.55^[a]
72 | COC(=O)C(C)(C)NC(=O)c1sc(Br)c(Cl)c1Br [1.0840] | – | 3.81^[a]
73 | CCOC(=O)[C@H](CO)NC(=O)c1sc(Br)c(Cl)c1C [1.0841] | – | 2.59^[a]
74 | CCOC(=O)[C@H](CO)NC(=O)c1sc(Cl)c(Br)c1C [1.0842] | – | 2.62^[a]
75 | CCOC(=O)[C@H](CO)NC(=O)c1sc(Br)c(Br)c1C [1.0843] | – | 2.64^[a]

Row | Structure (SMILES) | LogP (method marked [a]) | LogP (method [a])
76 | CCOC(=O)C(CO)NC(=O)c1sc(Br)c(Cl)c1C (stereo not shown) [1.0844] | – | 2.60^[a]
77 | CCOC(=O)CN(OC)C(=O)c1sc(C#N)c(Cl)c1Cl [1.0845] | – | 3.06^[a]
78 | CCOC(=O)[C@H](CO)NC(=O)c1sc(C#N)c(Br)c1C [1.0846] | – | 2.11^[a]
79 | CCOC(=O)C(CO)NC(=O)c1sc(Br)c(Cl)c1Br (stereo not shown) [1.0847] | – | 2.89^[a]
80 | CCOC(=O)CNC(=O)c1sc(C)c(Cl)c1Cl [1.0848] | – | 2.82^[a]
81 | COC(=O)C1(NC(=O)c2sc(Br)c(Br)c2Cl)CCC1 [1.0849] | – | 3.75^[a]
82 | N#CCNC(=O)c1sc(Br)c(Br)c1Cl [1.0850] | – | 2.67^[a]
83 | COC(=O)CNC(=S)c1sc(Cl)c(Cl)c1Br [1.0851] | – | 4.09^[a]
84 | COC(=O)CNC(=S)c1sc(Br)c(Br)c1Cl [1.0852] | – | 4.07^[a]
85 | CCOC(=O)C1(NC(=S)c2sc(Cl)c(Br)c2Cl)CCC1 [1.0853] | – | 5.04^[a]
86 | O=C(O)CNC(=S)c1sc(Cl)c(Cl)c1Br [1.0854] | – | 3.11^[a]
87 | C#CCOC(=O)CNC(=O)c1sc(Br)c(Br)c1F [1.0855] | – | 2.87^[a]
88 | O=C(CNC(=O)c1sc(Br)c(Br)c1F)OC1CC1 [1.0856] | – | 3.02^[a]
89 | C=CCOC(=O)CNC(=O)c1sc(Br)c(Br)c1F [1.0857] | – | 3.13^[a]
90 | N#CCCOC(=O)CNC(=O)c1sc(Br)c(Br)c1F [1.0858] | – | 2.48^[a]
91 | O=C(CNC(=O)c1sc(Br)c(Br)c1F)OCC1CC1 [1.0859] | – | 3.39^[a]
92 | CCCCOC(=O)CNC(=O)c1sc(Br)c(Br)c1F [1.0860] | – | 3.79^[a]
93 | O=C(O)CNC(=S)c1sc(Br)c(Br)c1Cl [1.0861] | – | 3.08^[a]
94 | O=C(CNC(=O)c1sc(Br)c(Br)c1F)OC1CCCC1 [1.0862] | – | 3.84^[a]
95 | O=C(CNC(=O)c1sc(Br)c(Br)c1F)Oc1ccccc1 [1.0863] | – | 3.58^[a]
96 | COC(=O)CNC(=S)c1sc(C#N)c(Br)c1C [1.0864] | – | 2.92^[a]
97 | CCOC(=O)C(NC(=S)c1sc(Br)c(Br)c1F)C1CC1 (stereo not shown) [1.0865] | – | 4.99^[a]
98 | N#CC1(NC(=O)c2sc(Br)c(Br)c2Cl)CCSCC1 [1.0868] | – | 3.71^[a]
99 | N#CC1(NC(=O)c2sc(Br)c(Br)c2F)CCSCC1 [1.0871] | – | 3.40^[a]
100 | CC(C#N)(NC(=O)c1sc(Br)c(Br)c1F)C1CC1 (stereo not shown) [1.0872] | – | 3.47^[a]
